Activity calls are given as the source filed them. No cut-off for these calls is given here.
Tests used:
[1] = test system: MCF7; experiment: Cytotoxicity against human MCF7 cells at 6.25 to 50 ug/ml incubated for 24 hrs by MTT assay; format: functional, cell-based
[2] = test system: MDA-MB-231; experiment: Cytotoxicity against human MDA-MB-231 cells at 6.25 to 50 ug/ml incubated for 24 hrs by MTT assay; format: functional, cell-based
[3] = test system: A549; experiment: Cytotoxicity against human A549 cells at 6.25 to 50 ug/ml incubated for 24 hrs by MTT assay; format: functional, cell-based
[4] = test system: HepG2; experiment: Cytotoxicity against human HepG2 cells at 6.25 to 50 ug/ml incubated for 24 hrs by MTT assay; format: functional, cell-based
[5] = Cytotoxicity against human THLE cells at 6.25 to 50 ug/ml incubated for 24 hrs by MTT assay; format: cell-based
[6] = Cytotoxicity against human HBE cells at 6.25 to 50 ug/ml incubated for 24 hrs by MTT assay; format: cell-based
[7] = test system: HepG2; experiment: Antimigratory activity against human HepG2 cells at 25 ug/ml measured up to 60 hrs by microscopic based wound healing assay; format: functional, cell-based
[8] = Toxicity in zebrafish AB embryo up to 100 ug/ml after 24 to 88 hrs by inverted microscope; design: species or system Danio rerio; details: in vivo
[9] = test system: Escherichia coli; experiment: Antibacterial activity against Escherichia coli ATCC 25922 up to 100 ug/ml incubated for 20 hrs by microbroth dilution method; format: functional, organism-based
[10] = test system: Klebsiella pneumoniae; experiment: Antibacterial activity against Klebsiella pneumoniae ATCC 43816 up to 100 ug/ml incubated for 20 hrs by microbroth dilution method; format: functional, organism-based
[11] = test system: Acinetobacter baumannii; experiment: Antibacterial activity against Acinetobacter baumannii ATCC 19004 up to 100 ug/ml incubated for 20 hrs by microbroth dilution method; format: functional, organism-based
[12] = test system: Staphylococcus aureus; experiment: Antibacterial activity against Staphylococcus aureus ATCC 29213 up to 100 ug/ml incubated for 20 hrs by microbroth dilution method; format: functional, organism-based
[13] = test system: Salmonella typhimurium; experiment: Antibacterial activity against Salmonella typhimurium ATCC 14028 up to 100 ug/ml incubated for 20 hrs by microbroth dilution method; format: functional, organism-based; details: Salmonella enterica subsp. enterica serovar Typhimurium
[14] = test system: Enterobacter cloacae; experiment: Antibacterial activity against Enterobacter cloacae ATCC 13047 up to 100 ug/ml incubated for 20 hrs by microbroth dilution method; format: functional, organism-based
[15] = test system: Klebsiella pneumoniae; experiment: Antibacterial activity against Klebsiella pneumoniae harboring NDM1 mutant up to 100 ug/ml incubated for 20 hrs by microbroth dilution method; format: functional, organism-based
[16] = test system: Staphylococcus aureus; experiment: Antibacterial activity against Methicillin-resistant Staphylococcus aureus up to 100 ug/ml incubated for 20 hrs by microbroth dilution method; format: functional, organism-based

COc1cc(C(=O)O)c2c3c1C(=O)O[C@@H](C)[C@@H]3CS2
Activity [1]: inactive
Activity [2]: inactive
Activity [3]: inactive
Activity [4]: inactive
Activity [5]: Non-Toxic
Activity [6]: Non-Toxic
Activity [7]: Active
Activity [8]: Non-Toxic
Activity [9]: inactive
Activity [10]: inactive
Activity [11]: inactive
Activity [12]: inactive
Activity [13]: inactive
Activity [14]: inactive
Activity [15]: inactive
Activity [16]: inactive
